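All cell lines were grown in 96-well plates and treated with compound for 48 hours. Abbreviation: GI50, concentration required for 50% inhibition of growth. At the TGI there is no net growth.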
Experiments:
Assay in all cases: NCI tumour cell line growth inhibition, 48 h
IGROV1 ovarian = test system: IGROV1 ovarian
SR leukemia = test system: SR leukemia
HOP-62 NSCLC = test system: HOP-62 NSCLC
HL-60(TB) leukemia = test system: HL-60(TB) leukemia
EKVX NSCLC = test system: EKVX NSCLC
MDA-MB-231 breast = test system: MDA-MB-231 breast
HCC-2998 colon = test system: HCC-2998 colon
PC-3 prostate = test system: PC-3 prostate
OVCAR-4 ovarian = test system: OVCAR-4 ovarian
OVCAR-3 ovarian = test system: OVCAR-3 ovarian
SN12C renal = test system: SN12C renal
M14 melanoma = test system: M14 melanoma
MCF7 breast = test system: MCF7 breast
NCI-H23 lung = test system: NCI-H23 lung
TK-10 renal = test system: TK-10 renal
ACHN renal = test system: ACHN renal
RPMI-8226 leukemia = test system: RPMI-8226 leukemia
A549 NSCLC = test system: A549 NSCLC
KM12 colon = test system: KM12 colon
DU-145 prostate = test system: DU-145 prostate
RXF 393 renal = test system: RXF 393 renal
SF-539 CNS = test system: SF-539 CNS
SF-268 CNS = test system: SF-268 CNS
MDA-MB-435 = test system: MDA-MB-435
COLO 205 colon = test system: COLO 205 colon
SNB-19 CNS = test system: SNB-19 CNS
A498 renal = test system: A498 renal
NCI-H226 lung = test system: NCI-H226 lung
SK-MEL-5 melanoma = test system: SK-MEL-5 melanoma
K-562 leukemia = test system: K-562 leukemia
786-0 renal = test system: 786-0 renal
OVCAR-8 ovarian = test system: OVCAR-8 ovarian
OVCAR-5 ovarian = test system: OVCAR-5 ovarian
LOX IMVI melanoma = test system: LOX IMVI melanoma
SK-MEL-2 melanoma = test system: SK-MEL-2 melanoma
HCT-116 colon = test system: HCT-116 colon
SW-620 colon = test system: SW-620 colon
U251 CNS = test system: U251 CNS
BT-549 breast = test system: BT-549 breast
HS 578T breast = test system: HS 578T breast
NCI/ADR-RES ovarian = test system: NCI/ADR-RES ovarian
UO-31 renal = test system: UO-31 renal
SF-295 CNS = test system: SF-295 CNS
CAKI-1 renal = test system: CAKI-1 renal
SNB-75 CNS = test system: SNB-75 CNS
NCI-H460 lung = test system: NCI-H460 lung
UACC-257 melanoma = test system: UACC-257 melanoma
HOP-92 NSCLC = test system: HOP-92 NSCLC
HCT-15 colon = test system: HCT-15 colon
NCI-H522 lung = test system: NCI-H522 lung
UACC-62 melanoma = test system: UACC-62 melanoma
MOLT-4 leukemia = test system: MOLT-4 leukemia
HT29 colon = test system: HT29 colon
SK-MEL-28 melanoma = test system: SK-MEL-28 melanoma
SK-OV-3 ovarian = test system: SK-OV-3 ovarian
CCRF-CEM leukemia = test system: CCRF-CEM leukemia

With `CCCn1cnc2c(c1=N)C(c1ccc(F)cc1)c1sc3c(CC)cccc3c1O2` (stereo unspecified) the GI50 (IGROV1 ovarian) was 176 nM, the TGI (IGROV1 ovarian) was 24000 nM and the GI50 (SR leukemia) was 117 nM. It also gave a TGI (SR leukemia) greater than 42300 nM, a GI50 (HOP-62 NSCLC) of 423 nM and a TGI (HOP-62 NSCLC) of 29700 nM. The GI50 (HL-60(TB) leukemia) was 243 nM, the TGI (HL-60(TB) leukemia) was 1080 nM and the GI50 (EKVX NSCLC) was 481 nM. For the same molecule, the TGI (EKVX NSCLC) was greater than 100000 nM, the GI50 (MDA-MB-231 breast) was 325 nM and the TGI (MDA-MB-231 breast) was greater than 62300 nM. For the same molecule, the GI50 (HCC-2998 colon) was 337 nM, the TGI (HCC-2998 colon) was 38700 nM and the GI50 (PC-3 prostate) was 79.8 nM. It also gave a TGI (PC-3 prostate) greater than 51400 nM, a GI50 (OVCAR-4 ovarian) of 336 nM and a TGI (OVCAR-4 ovarian) greater than 100000 nM. It also gave a GI50 (OVCAR-3 ovarian) of 68 nM, a TGI (OVCAR-3 ovarian) of 7680 nM and a GI50 (SN12C renal) of 398 nM. It also gave a TGI (SN12C renal) of 22500 nM, a GI50 (M14 melanoma) of 182 nM and a TGI (M14 melanoma) of 33600 nM. It also gave a GI50 (MCF7 breast) of 24.7 nM, a TGI (MCF7 breast) greater than 100000 nM and a GI50 (NCI-H23 lung) of 138 nM. It also gave a TGI (NCI-H23 lung) of 19300 nM, a GI50 (TK-10 renal) of 19400 nM and a TGI (TK-10 renal) greater than 100000 nM. For the same molecule, the GI50 (ACHN renal) was 133 nM, the TGI (ACHN renal) was 49900 nM and the GI50 (RPMI-8226 leukemia) was 200 nM. It also gave a TGI (RPMI-8226 leukemia) greater than 22900 nM, a GI50 (A549 NSCLC) of 236 nM and a TGI (A549 NSCLC) greater than 90700 nM. For the same molecule, the GI50 (KM12 colon) was 275 nM, the TGI (KM12 colon) was greater than 42300 nM and the GI50 (DU-145 prostate) was 309 nM. It also gave a TGI (DU-145 prostate) of 15300 nM, a GI50 (RXF 393 renal) of 29.4 nM and a TGI (RXF 393 renal) of 130 nM. The GI50 (SF-539 CNS) was 94.9 nM, the TGI (SF-539 CNS) was 815 nM and the GI50 (SF-268 CNS) was 241 nM. The TGI (SF-268 CNS) was greater than 100000 nM, the GI50 (MDA-MB-435) was 23.9 nM and the TGI (MDA-MB-435) was 60 nM. The GI50 (COLO 205 colon) was 354 nM, the TGI (COLO 205 colon) was 1950 nM and the GI50 (SNB-19 CNS) was 273 nM. It also gave a TGI (SNB-19 CNS) of 49400 nM, a GI50 (A498 renal) of 79.9 nM and a TGI (A498 renal) of 1040 nM. The GI50 (NCI-H226 lung) was 395 nM, the GI50 (SK-MEL-5 melanoma) was 99.8 nM and the TGI (SK-MEL-5 melanoma) was 1200 nM. It also gave a GI50 (K-562 leukemia) of 58.3 nM, a TGI (K-562 leukemia) greater than 100000 nM and a GI50 (786-0 renal) of 443 nM. For the same molecule, the TGI (786-0 renal) was greater than 89200 nM, the GI50 (OVCAR-8 ovarian) was 434 nM and the TGI (OVCAR-8 ovarian) was greater than 100000 nM. It also gave a GI50 (OVCAR-5 ovarian) of 493 nM, a TGI (OVCAR-5 ovarian) greater than 100000 nM and a GI50 (LOX IMVI melanoma) of 40.4 nM. The TGI (LOX IMVI melanoma) was 31300 nM, the GI50 (SK-MEL-2 melanoma) was 7570 nM and the TGI (SK-MEL-2 melanoma) was greater than 100000 nM. The GI50 (HCT-116 colon) was 263 nM, the TGI (HCT-116 colon) was 4770 nM and the GI50 (SW-620 colon) was 237 nM. It also gave a TGI (SW-620 colon) greater than 100000 nM, a GI50 (U251 CNS) of 273 nM and a TGI (U251 CNS) greater than 40600 nM. The GI50 (BT-549 breast) was 1990 nM, the TGI (BT-549 breast) was 19100 nM and the GI50 (HS 578T breast) was 86.4 nM. The TGI (HS 578T breast) was greater than 88000 nM, the GI50 (NCI/ADR-RES ovarian) was 50.1 nM and the TGI (NCI/ADR-RES ovarian) was 26400 nM. The GI50 (UO-31 renal) was 81.3 nM, the TGI (UO-31 renal) was greater than 100000 nM and the GI50 (SF-295 CNS) was 47.8 nM. It also gave a TGI (SF-295 CNS) greater than 47900 nM, a GI50 (CAKI-1 renal) of 62.1 nM and a TGI (CAKI-1 renal) of 18300 nM. For the same molecule, the GI50 (SNB-75 CNS) was 35.3 nM, the TGI (SNB-75 CNS) was 36500 nM and the GI50 (NCI-H460 lung) was 211 nM. For the same molecule, the TGI (NCI-H460 lung) was 13900 nM, the GI50 (UACC-257 melanoma) was 27500 nM and the TGI (UACC-257 melanoma) was greater than 100000 nM. For the same molecule, the GI50 (HOP-92 NSCLC) was 53.8 nM, the TGI (HOP-92 NSCLC) was 4190 nM and the GI50 (HCT-15 colon) was 179 nM. It also gave a TGI (HCT-15 colon) greater than 100000 nM, a GI50 (NCI-H522 lung) of 35.9 nM and a TGI (NCI-H522 lung) of 8080 nM. The GI50 (UACC-62 melanoma) was 38 nM, the TGI (UACC-62 melanoma) was 29000 nM and the GI50 (MOLT-4 leukemia) was 434 nM. The TGI (MOLT-4 leukemia) was greater than 100000 nM, the GI50 (HT29 colon) was 302 nM and the TGI (HT29 colon) was 27300 nM. It also gave a GI50 (SK-MEL-28 melanoma) of 8900 nM, a TGI (SK-MEL-28 melanoma) greater than 100000 nM and a GI50 (SK-OV-3 ovarian) of 1210 nM. For the same molecule, the TGI (SK-OV-3 ovarian) was 35000 nM, the GI50 (CCRF-CEM leukemia) was 314 nM and the TGI (CCRF-CEM leukemia) was greater than 67900 nM.

From PubChem BioAssay (NCI)
